Experimental findings from US20230144824A1, “1H-PYRAZOLO[4,3-d]PYRIMIDINE COMPOUNDS AS TOLL-LIKE RECEPTOR 7 (TLR7) AGONISTS” (BRISTOL-MYERS SQUIBB COMPANY, priority 2020, published 2023) are described below.

One experiment deals with T1, human TLR7 (Homo sapiens, UniProt Q9NYK1).
T1 construct: host or cells: HEK-Blue TLR7 cells (engineered human embryonic kidney cells)
T1 sequence (Q9NYK1 27-1049): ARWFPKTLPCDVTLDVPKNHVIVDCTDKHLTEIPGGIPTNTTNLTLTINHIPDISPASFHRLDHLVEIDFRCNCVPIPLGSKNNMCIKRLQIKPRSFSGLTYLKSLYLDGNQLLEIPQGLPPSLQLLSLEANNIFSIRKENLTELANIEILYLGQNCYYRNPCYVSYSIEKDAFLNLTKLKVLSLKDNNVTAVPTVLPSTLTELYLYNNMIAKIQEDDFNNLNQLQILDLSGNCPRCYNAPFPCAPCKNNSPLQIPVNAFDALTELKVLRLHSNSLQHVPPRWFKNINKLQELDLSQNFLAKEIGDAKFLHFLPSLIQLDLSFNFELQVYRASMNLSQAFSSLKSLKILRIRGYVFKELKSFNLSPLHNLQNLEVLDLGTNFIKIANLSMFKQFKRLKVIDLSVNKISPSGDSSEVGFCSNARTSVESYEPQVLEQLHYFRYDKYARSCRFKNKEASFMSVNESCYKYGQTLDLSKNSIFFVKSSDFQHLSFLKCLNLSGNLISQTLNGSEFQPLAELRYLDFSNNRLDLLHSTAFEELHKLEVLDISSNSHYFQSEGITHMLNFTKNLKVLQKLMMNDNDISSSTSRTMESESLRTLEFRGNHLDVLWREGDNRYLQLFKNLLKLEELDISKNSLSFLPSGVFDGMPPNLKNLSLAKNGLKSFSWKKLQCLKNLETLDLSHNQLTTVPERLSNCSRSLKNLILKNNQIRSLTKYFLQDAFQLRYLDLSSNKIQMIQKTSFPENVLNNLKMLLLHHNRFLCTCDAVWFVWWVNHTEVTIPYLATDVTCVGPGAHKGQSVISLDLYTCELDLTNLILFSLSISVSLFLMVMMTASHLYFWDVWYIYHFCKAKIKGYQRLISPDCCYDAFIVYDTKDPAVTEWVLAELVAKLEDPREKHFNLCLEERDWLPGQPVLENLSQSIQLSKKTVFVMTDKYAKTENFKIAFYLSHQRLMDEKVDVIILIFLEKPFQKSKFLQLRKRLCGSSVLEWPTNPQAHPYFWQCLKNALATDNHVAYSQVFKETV
The experiment is described as follows: Human TLR7 agonist activity assay (HEK-Blue TLR7 SEAP reporter). In kind it is cell-based. The conditions noted are these: HEK-Blue TLR7 cells, 18 h treatment, average where assay performed multiple times, read-out: hTLR7 Agonism EC50. The method in brief: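 HEK-Blue TLR7 cells (15,000/well) treated with compound for 18 h at 37 °C, 5% CO2. Secreted SEAP measured with Quanti-Blue, 30 min, OD 620 nm. EC50 taken as concentration giving half-maximal response between baseline and maximum.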

In another experiment the test system is CD69. The experiment is described as follows: Induction of CD69 in human whole blood. As to conditions: Homo sapiens, 17 h, 100% set to 1 uM of resiquimod, average where assay performed multiple times, read-out: hWB CD69 EC50. In kind it is cell-based. As for the experimental part:
The induction of Type I interferon (IFN) MX-1 genes and the B-cell activation marker CD69 are downstream events that occur upon activation of the TLR7 pathway. The following is a human whole blood assay that measures their induction in response to a TLR7 agonist.
Heparinized human whole blood was harvested from human subjects and treated with test TLR7 agonist compounds at 1 mM. The blood was diluted with RPMI 1640 media and Echo was used to predot 10 nL per well giving a final concentration of 1 uM (10 nL in 10 uL of blood). After mixing on a shaker for 30 sec, the plates were covered and placed in a 37° C. chamber for o/n=17 hrs. Fixing/lysis buffer was prepared (5×->1× in H2O, warm at 37° C.; Cat #BD 558049) and kept the perm buffer (on ice) for later use.
For surface markers staining (CD69): prepared surface Abs: 0.045 ul hCD14-FITC (ThermoFisher Cat #MHCD1401)+0.6 ul hCD19-ef450 (ThermoFisher Cat #48-0198-42)+1.5 ul hCD69-PE (cat #BD555531)+0.855 ul FACS buffer. Added 3 ul/well, spin1000 rpm for 1 min and mixed on shaker for 30 sec, put on ice for 30 mins. Stop stimulation after 30 minutes with 70 uL of prewarmed 1× fix/lysis buffer and use Feliex mate to resuspend (15 times, change tips for each plate) and incubate at 37 C for 10 minutes.
Centrifuge at 2000 rpm for 5 minutes aspirate with HCS plate washer, mix on shaker for 30 sec and then wash with 70 uL in dPBS and pelleted 2×s (2000 rpm for 5 min) and 50 ul wash in FACS buffer pelleted 1×s (2000 rpm for 5 min). Mix on shaker for 30 sec. For Intracellular markers staining (MX-1): Add 50 ul of BD Perm buffer III and mix on shaker for 30 sec. Incubate on ice for 30 minutes (in the dark). Wash with 50 uL of FACS buffer 2×(spin @2300 rpm×5 min after perm) followed by mixing on shaker for 30 sec. Resuspended in 20 ul of FACS buffer containing MX1 antibody ( )(4812)-Alexa 647: Novus Biologicals #NBP2-43704AF647) 20 ul FACS bf+0.8 ul hIgG+0.04 ul MX-1. Spin 1000 rpm for 1 min, mix on shaker for 30 se and the samples were incubated at RT in the dark for 45 minutes followed by washing 2×FACS buffer (spin @2300 rpm×5 min after perm). Resuspend 20 ul (35 uL total per well) of FACS buffer and cover with foil and place in 4° C. to read the following day. Plates were read on iQuePlus. The results were loaded into toolset and IC50 curves are generated in curve master. The y-axis 100% is set to 1 uM of resiquimod.

Molecules are shown by their SMILES.

As usually defined, the EC50 is the midpoint of the concentration-response curve. Turning to `CCC[C@@H](CCO)Nc1nc(N)nc2cnn(Cc3ncc(C4CCN(CCO)CC4)cc3OC)c12` [Compound 125, (3S)-3-{[5-amino-1-({5-[1-(2-hydroxyethyl)piperidin-4-yl]-3-methoxypyridin-2-yl}methyl)-1H-pyrazolo[4,3-d]pyrimidin-7-yl]amino}hexan-1-ol], the EC50 stood at 57.8 nM on human TLR7 and 10.2 nM in the experiment on CD69.
As to `CCC[C@@H](CCO)Nc1nc(N)nc2cnn(Cc3ncc(C4CCN(C(C)C)CC4)cc3OC)c12` [Compound 126, (3S)-3-{[5-amino-1-({3-methoxy-5-[1-(propan-2-yl)piperidin-4-yl]pyridin-2-yl}methyl)-1H-pyrazolo[4,3-d]pyrimidin-7-yl]amino}hexan-1-ol], the EC50 was found to be 15.5 nM at human TLR7 and 2 nM in the experiment with CD69.
Take `CCC[C@@H](CCO)Nc1nc(N)nc2cnn(Cc3ncc(C4CCN(C5CCOCC5)CC4)cc3OC)c12` [Compound 127, (3S)-3-{[5-amino-1-({3-methoxy-5-[1-(oxan-4-yl)piperidin-4-yl]pyridin-2-yl}methyl)-1H-pyrazolo[4,3-d]pyrimidin-7-yl]amino}hexan-1-ol]: the EC50 came to 12.8 nM on human TLR7 and 2.7 nM in the experiment on CD69.
In the same order, the values of `CCCCNc1nc(N)nc2cnn(Cc3ncc(C4CCN(C(=O)CN(C)C)CC4)cc3OC)c12` [Compound 128, 1-[4-(6-{[5-amino-7-(butylamino)-1H-pyrazolo[4,3-d]pyrimidin-1-yl]methyl}-5-methoxypyridin-3-yl)piperidin-1-yl]-2-(dimethylamino)ethan-1-one] are 48.4 nM and 3.5 nM.
With `CCCCNc1nc(N)nc2cnn(Cc3ncc(C4CCN(C5CCCC5)CC4)cc3OC)c12` [Compound 129, N7-butyl-1-{[5-(1-cyclopentylpiperidin-4-yl)-3-methoxypyridin-2-yl]methyl}-1H-pyrazolo[4,3-d]pyrimidine-5,7-diamine], the EC50 at human TLR7 stood at 27.3 nM; in the experiment on CD69 it was 7.6 nM.
Regarding `CCCCNc1nc(N)nc2c(Cl)nn(Cc3ncc(C4CCN(C5CCCC5)CC4)cc3OC)c12` [Compound 131, N7-butyl-3-chloro-1-{[5-(1-cyclopentylpiperidin-4-yl)-3-methoxypyridin-2-yl]methyl}-1H-pyrazolo[4,3-d]pyrimidine-5,7-diamine], the EC50 at human TLR7 was found to be 595 nM; with CD69 it was 972 nM.
As for `CCCCNc1nc(N)nc2cnn(Cc3ncc(C4CCN(C=O)CC4)cc3OC)c12` [Compound 132, 4-(6-{[5-amino-7-(butylamino)-1H-pyrazolo[4,3-d]pyrimidin-1-yl]methyl}-5-methoxypyridin-3-yl)piperidine-1-carbaldehyde], the EC50 at human TLR7 came to 180 nM; in the experiment on CD69 it was 195 nM.
Turning to `CCC[C@@H](CCO)Nc1nc(N)nc2cnn(Cc3ncc(C4CCN(C5COC5)CC4)cc3OC)c12` [Compound 133, (3S)-3-{[5-amino-1-({3-methoxy-5-[1-(oxetan-3-yl)piperidin-4-yl]pyridin-2-yl}methyl)-1H-pyrazolo[4,3-d]pyrimidin-7-yl]amino}hexan-1-ol], the values for the EC50 on human TLR7 and with CD69 were 7.6 nM and 5.4 nM, respectively.
On to `CCC[C@@H](CCO)Nc1nc(N)nc2cnn(Cc3ncc(C4CCN(C)CC4)cc3OC)c12` [Compound 134, (3S)-3-[(5-amino-1-{[3-methoxy-5-(1-methylpiperidin-4-yl)pyridin-2-yl]methyl}-1H-pyrazolo[4,3-d]pyrimidin-7-yl)amino]hexan-1-ol], for which the EC50 turned out to be 14.1 nM at human TLR7 and 2.6 nM in the experiment on CD69.
On to `CCC[C@@H](CCO)Nc1nc(N)nc2cnn(Cc3ncc(C4CCN(C(=O)CN(C)C)CC4)cc3OC)c12` [Compound 135, 1-(4-{6-[(5-amino-7-{[(3S)-1-hydroxyhexan-3-yl]amino}-1H-pyrazolo[4,3-d]pyrimidin-1-yl)methyl]-5-methoxypyridin-3-yl}piperidin-1-yl)-2-(dimethylamino)ethan-1-one], for which the EC50 came out at 41.4 nM at human TLR7 and 11.7 nM in the experiment on CD69.
As to `CCC[C@@H](CCO)Nc1nc(N)nc2cnn(Cc3ncc(C4CCN(C(=O)CCN(C)C)CC4)cc3OC)c12` [Compound 136, 1-(4-{6-[(5-amino-7-{[(3S)-1-hydroxyhexan-3-yl]amino}-1H-pyrazolo[4,3-d]pyrimidin-1-yl)methyl]-5-methoxypyridin-3-yl}piperidin-1-yl)-3-(dimethylamino)propan-1-one], the EC50 is 197 nM on human TLR7 and 42.3 nM in the experiment on CD69.
With `COc1cc(C2CCNCC2)cnc1Cn1ncc2nc(N)nc(NCc3cc(C)on3)c21` [Compound 137, 1-{[3-methoxy-5-(piperidin-4-yl)pyridin-2-yl]methyl}-N7-[(5-methyl-1,2-oxazol-3-yl)methyl]-1H-pyrazolo[4,3-d]pyrimidine-5,7-diamine], the EC50 was 357 nM at human TLR7 and 118 nM in the experiment on CD69.
With `CCC[C@@H](CCO)Nc1nc(N)nc2cnn(Cc3ncc(C4CCN(C5CN(C)C5)CC4)cc3OC)c12` [Compound 138, (3S)-3-{[5-amino-1-({3-methoxy-5-[1-(1-methylazetidin-3-yl)piperidin-4-yl]pyridin-2-yl}methyl)-1H-pyrazolo[4,3-d]pyrimidin-7-yl]amino}hexan-1-ol], the EC50 came out at 26.7 nM at human TLR7 and 5.6 nM in the experiment on CD69.
`CCC[C@@H](CCO)Nc1nc(N)nc2cnn(Cc3ncc(C4CCN(C5CN(C(C)C)C5)CC4)cc3OC)c12` [Compound 139, (3S)-3-({5-amino-1-[(3-methoxy-5-{1-[1-(propan-2-yl)azetidin-3-yl]piperidin-4-yl}pyridin-2-yl)methyl]-1H-pyrazolo[4,3-d]pyrimidin-7-yl}amino)hexan-1-ol]: the values for the EC50 on human TLR7 and with CD69 were 8.1 nM and 1.1 nM, respectively.
Consider `COc1cc(C2CCN(C(=O)CCN(C)C)CC2)cnc1Cn1ncc2nc(N)nc(NCc3cc(C)on3)c21` [Compound 140, 1-(4-{6-[(5-amino-7-{[(5-methyl-1,2-oxazol-3-yl)methyl]amino}-1H-pyrazolo[4,3-d]pyrimidin-1-yl)methyl]-5-methoxypyridin-3-yl}piperidin-1-yl)-3-(dimethylamino)propan-1-one], for which the EC50 at human TLR7 came to 530 nM; in the experiment on CD69, 128 nM.
`COc1cc(C2CCN(C3CCOCC3)CC2)cnc1Cn1ncc2nc(N)nc(NCc3cc(C)on3)c21` [Compound 141, 1-({3-methoxy-5-[1-(oxan-4-yl)piperidin-4-yl]pyridin-2-yl}methyl)-N7-[(5-methyl-1,2-oxazol-3-yl)methyl]-1H-pyrazolo[4,3-d]pyrimidine-5,7-diamine]: the EC50 on human TLR7 was determined as 73.2 nM; in the experiment on CD69, 16.2 nM.
